Measured values as given in BindingDB's records for doi:10.1016/j.bmcl.2009.05.071 (Astrazeneca, 2009).

Molecular target: T1, Procathepsin L [114-333,T223A] (Homo sapiens, UniProt P07711, T223A)
T1 construct: 114-333
Assay: Cathepsin Inhibition Assay
Conditions: pH 7; 37 °C
Protocol: IC50 values for inhibition of Cathepsins were determined from dose dependent inhibition of cleavage of fluorogenic, AMC-tagged, peptide substrates.

T1 sequence (P07711 114-333 T223A): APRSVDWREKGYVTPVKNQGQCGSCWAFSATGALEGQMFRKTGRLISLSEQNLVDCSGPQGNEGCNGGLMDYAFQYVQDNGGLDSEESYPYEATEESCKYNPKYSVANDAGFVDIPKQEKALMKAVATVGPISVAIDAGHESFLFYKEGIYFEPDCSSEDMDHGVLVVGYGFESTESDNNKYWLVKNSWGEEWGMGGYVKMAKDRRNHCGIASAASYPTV

IC50 [nM] | Structure (SMILES)
251 | N#CCNC(=O)[C@H](Cc1cccc(Cl)c1)NC(=O)c1ccccc1 [Dipeptidyl nitrile inhibitor, 1]
13 | Cn1nc(C(C)(C)C)cc1C(=O)N[C@@H](Cc1cccc(Cl)c1)C(=O)NCC#N [Dipeptidyl nitrile inhibitor, 25]
